From patent US8623856B2, “Phenoxy-azetidine derivatives as sphingosine 1-phosphate (S1P) receptor modulators” (Allergan, Inc., priority 2012, dated 2014)

target: T1, human S1P1 receptor (Homo sapiens, UniProt P21453); assay: GTP γ35S binding assay for S1P1 activity; format: biochemical; conditions: membranes of cells stably expressing the S1P1 receptor, agonist activity potency
T1 construct: expressed in transfected cells; host or cells: unnamed cell line stably expressing the S1P1 receptor; membranes were used
T1 sequence (P21453 whole entry): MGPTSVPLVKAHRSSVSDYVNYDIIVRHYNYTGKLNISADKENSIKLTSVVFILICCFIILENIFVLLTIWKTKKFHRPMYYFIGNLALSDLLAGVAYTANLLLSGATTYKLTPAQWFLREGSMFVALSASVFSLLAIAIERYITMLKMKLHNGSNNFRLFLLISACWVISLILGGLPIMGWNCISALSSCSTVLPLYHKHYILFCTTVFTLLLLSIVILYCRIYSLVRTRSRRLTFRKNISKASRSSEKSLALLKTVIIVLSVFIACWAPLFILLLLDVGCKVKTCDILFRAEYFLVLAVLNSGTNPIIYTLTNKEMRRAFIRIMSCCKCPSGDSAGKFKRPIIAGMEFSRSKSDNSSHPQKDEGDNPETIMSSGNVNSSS
Method: Compounds were synthesized and tested for S1P1 activity using the GTP γ^35S binding assay. These compounds may be assessed for their ability to activate or block activation of the human S1P1 receptor in cells stably expressing the S1P1 receptor. GTP γ^35S binding was measured in the medium containing (mM) HEPES 25, pH 7.4, MgCl2 10, NaCl 100, dithitothreitol 0.5, digitonin 0.003%, 0.2 nM GTP γ^35S, and 5 μg membrane protein in a volume of 150 μl. Test compounds were included in the concentration range from 0.08 to 5,000 nM unless indicated otherwise. Membranes were incubated with 100 μM 5′-adenylylimmidodiphosphate for 30 min, and subsequently with 10 μM GDP for 10 min on ice. Drug solutions and membrane were mixed, and then reactions were initiated by adding GTP γ^35S and continued for 30 min at 25° C. Reaction mixtures were filtered over Whatman GF/B filters under vacuum, and washed three times with 3 mL of ice-cold buffer (HEPES 25, pH7.4, MgCl2 10 and NaCl 100). Filters were dried and mixed with scintillant, and counted for ^35S activity using a β-counter. Agonist-induced GTP γ^35S binding was obtained by subtracting that in the absence of agonist. Binding data were analyzed using a non-linear regression method. In case of antagonist assay, the reaction mixture contained 10 nM S1P in the presence of test antagonist at concentrations ranging from 0.08 to 5000 nM.

EC50 [nM] | Compound
1.37 | Cc1ccc(CC(CCCOc2ccc(CN3CC(C(=O)O)C3)cc2)c2cccc(F)c2F)cc1C (stereo not shown) [1-(4-{([4-(2,3-difluorophenyl)-5-(3,4-dimethylphenyl)pentyl]oxy}benzyl)azetidine-3-carboxylic acid]
1.4 | Cc1ccc(CC(CCCOc2ccc(CN3CC(C(=O)O)C3)cc2)c2cc(F)cc(F)c2)cc1C (stereo not shown) [1-(4-{[4-(3,5-difluorophenyl)-5-(3,4-dimethylphenyl)pentyl]oxy}benzyl)azetidine-3-carboxylic acid]
5.7 | Cc1ccc(CC(CCCOc2ccc(CN3CC(C(=O)O)C3)cc2)c2ccsc2)cc1C (stereo not shown) [1-(4-{[5-(3,4-dimethylphenyl)-4-(3-thienyl)pentyl]oxy}benzyl)azetidine-3-carboxylic acid]

Compound | EC50 [nM]
Cc1ccc(CC(CCOc2ccc(CN3CC(C(=O)O)C3)cc2)c2cccc(Cl)c2)cc1C (stereo not shown) [1-{4-[3-(3-chlorophenyl)-4-(3,4-dimethylphenyl)butoxy]benzyl}azetidine-3-carboxylic acid] | 50.2
